Measured values as given in article PMC6173696, “Structural properties of a haemophore facilitate targeted elimination of the pathogen Porphyromonas gingivalis” (Nature Communications, 2018).

Tests used:
Assay type in all cases: cell-based, Porphyromonas gingivalis
[1] = test system: P. gingivalis wild type W83; experiment: Time-kill experiment with high and low densities of bacteria, iron limited
Description: Supplementary Figure 22. Time-kill experiment with high and low densities of P. gingivalis wild type W83 in the presence of P8 antibiotic under iron limited condition. (A) Representative planktonic growth curves show control P. gingivalis culture without P8 antibiotic (filled dark blue circle), P8 at 0.5 µM (light blue circle) and 2.5 µM (dash-filled light blue circle) added at the commencement of growth. (B) Representative planktonic growth curves shown control P. gingivalis culture without P8 antibiotic (filled dark blue circle), P8 at 0.5 µM (dash-filled light blue circle) and 2.5 µM (filled light blue circle) added to the exponentially growing cultures.
(1 picture or pasted object on this page, not shown here) […]
1) Fig. 1A still needs confirmation with the inclusion of two additional panels.
(a) Effect of 0.5 µM P8 added to the culture prior to the commencement of growth. (b) Effect of adding 0.5 µM P8 to actively growing cultures of P. gingivalis W83
Response: The growth curve studies, including addition of 0.5µM P8 prior to the commencement of […]
the commencement of growth (low bacteria density).
2.5 µM P8 under the same condition. When added to the actively growing culture (high bacteria density) of P. gingivalis W83, both 0.5 µM and 2.5 µM P8 retard growth with the 2.5 µM P8 treatment achieving a relative lower density at stationary phase. The MIC of P8 is correlated to the initial bacteria densities in the inoculum. Udekwu et al. have reported that higher concentration of antibiotics is required to achieve the MIC when treating higher densities of bacteria albeit with variation according to class of drug […]
As P8 is introduced in the later section of the main text, we have presented the results as Supplementary […]
is not uniform in panel “i”.
3) HSQC spectra for the interaction of HusA with P8 should be provided (analogous to Supplementary
Fig. 18A, where the authors have done a nice job of showing the data down to noise level). Specifically, HSQC superpositions of DPIX and P8 would make for direct comparison. Similarly, the authors would also need to show an HSQC comparison of HusA alone and bound to P8. Indeed, Supplementary Fig. 21 is helpful in analyzing the exchange regimes of a couple of residues, but it doesn't give a global picture of […]

[2] = test system: P. gingivalis wild-type W83; experiment: Checkerboard / broth micro-dilution assay (MIC, MBC), wild-type W83
Text: (§1) Fig. 5 A prototype DPIX-conjugated antibiotic binds HusA and inhibits P. gingivalis. a The chemical structure of the deuteroporphyrin-lysine-metronidazole adduct, P8. b NMR signal intensity changes (black) and ^1H^N CSPs (red/green) for HusA upon addition of P8 (measured from ^15N-HSQC spectra shown in Supplementary Figure 21). c In silico docking of P8 to the energy minimized structure of HusA (conformer set 1), with residues experiencing NMR signal loss (orange) or CSPs (red/green) mapped to the structure (colouring as described in Fig. 2d). d Scaled and corrected fluorescence at 335 nm during titration of 1 μM of HusA with increasing concentrations of P8, haemin or DPIX. e Comparison of P8 inhibitory effect towards P. gingivalis wild-type W83 and husA mutants using checkerboard analysis. Serial dilutions of antibiotics (horizontal axis) were applied to a 96-well plate with different P. gingivalis strains (vertical axis). Serial dilutions of DPIX were also supplemented into wild-type W83 group to evaluate the competitive effect against P8. Absorption at OD600 of each well was recorded after 24 h of incubation. The OD600 of each strain grown in the absence of antibiotics was defined as 100% growth, which was applied to normalise the reading collected from other wells. The normalised percentage of each well was plotted in the checkerboard. Metronidazole alone and in combination with PPIX or DPIX was applied as control. f Intracellular killing assay of P8 antibiotics. Gingival H413 epithelial cells were infected by P. gingivalis W83 and then treated with P8 at various concentrations. Recovered bacteria were determined by CFU count. Metronidazole and DMSO were used as control. Three independent experiments with triplicate assays were conducted. […]

[3] = test system: P. gingivalis W83 within gingival H413 epithelial cells; experiment: Intracellular killing assay in infected H413 epithelial cells; conditions: H413 cells infected by W83, CFU count
Text: as §1, with “The normalised percentage of each well was plotted in the checkerboard. Metronidazole alone and in combination with PPIX or DPIX was applied as control. f Intracellular killing assay of P8 antibiotics. Gingival H413 epithelial cells were infected by P. gingivalis W83 and then treated with P8 at various concentrations.” left out, “count.” for “count. Metronidazole and DMSO were used as control. Three independent experiments with triplicate assays were conducted.”

CC1=Cc2cc3[nH]c(cc4nc(cc5[nH]c(cc1n2)cc5C)C(C)=C4CCC(=O)N[C@@H](CCCCNC(=O)OC(C)(C)C)C(=O)NCCn1c([N+](=O)[O-])cnc1C)c(CCC(=O)O)c3C [P8]
effect on growth ([1]; 0.5 µM P8 added prior to the commencement of growth (low bacteria density), dipyridyl): retards the growth
effect on growth ([1]; 0.5 µM P8 added to the actively growing culture (high bacteria density)): retard growth
effect on growth ([1]; 2.5 µM P8 added prior to the commencement of growth, dipyridyl): fails to growth
effect on growth ([1]; 2.5 µM P8 added to the actively growing culture, relative lower density at stationary phase): retard growth
MBC ([2]; Porphyromonas gingivalis, no growth recovery on eTSB agar plate, read-out: minimal bactericidal concentration): 10 to 20 µM
MIC ([2]; Porphyromonas gingivalis, planktonic W83, 24 h, anaerobic, read-out: minimal inhibitory concentration): 1.25 to 2.5 µM
killing of extracellular P. gingivalis ([2]; planktonic W83): more effective than metronidazole
killing of intracellular P. gingivalis [3]: more effective than metronidazole
